Test results taken from PubChem BioAssay AID1645868 (Buhrlage Lab, Dana-Farber Cancer Institute and Novartis …, 2021).
Active and inactive are the calls of the source.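 Rule for the calls: active = maximal percent inhibition of the deubiquitinase OTUD3 of at least 30% across the tested doses; inactive = the rest.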

Molecular target: OTU domain-containing protein 3 (Homo sapiens) (UniProt Q5T2D3)
Assay: Validation of screening hits, potency titration, in vitro enzymatic, OTU domain-containing protein 3 DUB inhibitors (AID 1645868)
Conditions: purified OTUD3, ubiquitin-rhodamine cleavage fluorescence, 2 h

OTU domain-containing protein 3 (Homo sapiens), sequence (Q5T2D3 whole entry, looked up, the tested form may be a part): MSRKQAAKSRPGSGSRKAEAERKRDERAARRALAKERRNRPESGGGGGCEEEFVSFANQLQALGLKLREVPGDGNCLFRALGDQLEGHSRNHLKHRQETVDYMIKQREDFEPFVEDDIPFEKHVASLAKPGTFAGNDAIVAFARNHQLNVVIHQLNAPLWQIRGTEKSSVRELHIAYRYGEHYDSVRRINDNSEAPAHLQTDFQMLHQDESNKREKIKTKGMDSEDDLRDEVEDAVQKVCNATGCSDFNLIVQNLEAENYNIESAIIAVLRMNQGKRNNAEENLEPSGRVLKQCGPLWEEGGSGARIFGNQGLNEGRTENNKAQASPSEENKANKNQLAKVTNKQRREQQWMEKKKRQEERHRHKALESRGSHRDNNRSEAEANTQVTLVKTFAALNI

| IC50 | SMILES |
| --- | --- |
| > 50 µM (inactive) | CCOc1ccccc1NC(=O)Cn1c(-c2ccc3c(c2)OCO3)cn(-c2ccc(OC)cc2)c1=O |
| > 50 µM (inactive) | O=C(CN(Cc1ccc(Cl)cc1)S(=O)(=O)c1ccc(Cl)cc1)N1CCOCC1 |
| > 50 µM (inactive) | CCCCN(C)C(=O)c1cc2c(=O)n3cccc(C)c3nc2n1Cc1ccccc1 |
| 19.5 µM | COc1ccc(S(=O)(=O)N2CCc3ccccc32)cc1C(=O)Nc1ccc2[nH]c(=O)[nH]c2c1 |
| > 50 µM (inactive) | COc1ccc(C2CC(c3ccc(C)cc3)N(C(=O)C3CC3)c3ncnn32)cc1 (stereo not drawn) |
| > 50 µM (inactive) | COc1cccc(N2CCN(C(=O)c3cc(NC(C)=O)cc4nc(C)ccc34)CC2)c1 |
| 2.63 µM | COC1=CC(=O)c2c(O)c3c(c(C)c2C1=O)C[C@@]1(O)[C@H](O[C@H]2CC[C@H](O[C@H]4C[C@@](C)(O)[C@H](OC(=O)c5c(C)ccc(C)c5O)[C@H](C)O4)[C@@H](C)O2)C(=O)C(C(C)=O)=C(O)[C@@]1(O)C3=O |
| > 50 µM (inactive) | Cc1ccc2nc(NC(=O)C3CCCN3S(=O)(=O)c3ccc4c(c3)OCCO4)sc2c1 (stereo not drawn) |
| > 50 µM (inactive) | Cc1ccc(C(=O)N2CCCC3(C2)Nc2cccnc2NC3=NC2CCCC2)s1 (stereo not drawn) |
| 4.68 µM | CCOc1ccc(NC(=O)Cn2cc(C(=O)c3ccc(Cl)cc3)c(=O)c3cc(OC)ccc32)cc1 |
| > 50 µM (inactive) | Cn1c(=O)c(C(=O)CN2CCN(c3ccc(O)cc3)CC2)c(N)n(Cc2ccccc2)c1=O |
| > 50 µM (inactive) | CCOc1ccccc1C(=O)Nc1ccc2c(c1)Sc1ncccc1C(=O)N2C |
| > 50 µM (inactive) | O=C(Nc1ccncc1)c1ncoc1-c1cccc(Cl)c1 |
| > 50 µM (inactive) | COc1ccc(O)c(C(=O)OCc2cc(=O)oc3ccc4ccccc4c23)c1 |
| 12.7 µM | Cc1cc(C)c(O)c(-c2cc(C(=O)Nc3ccccc3Cl)[nH]n2)c1 |
| > 50 µM (inactive) | CC(=O)NCc1nc(-c2ccc3c(c2)nc(C)c(=O)n3C2CCCC2)no1 |
| > 50 µM (inactive) | O=C(COC(=O)c1ccc(CN2CCCC2=O)cc1)c1ccc2c(c1)OCCO2 |

| IC50 | SMILES |
| --- | --- |
| > 50 µM (inactive) | O=C(/C=C/c1ccc(F)cc1)Nc1ccc2c(c1)OCCO2 |
| > 50 µM (inactive) | CCC(=O)Nc1cccnc1-c1ccc(C(=O)Nc2cccc(OC)c2)cc1 |
| > 50 µM (inactive) | CC(=O)c1cccc(NC(=O)c2ccc(N3CCCCC3)nn2)c1 |
| 47.6 µM | CC(C)c1ccc(C(C(=O)NC2CCCCC2)N(C(=O)c2cnccn2)c2cccc(F)c2)cc1 (stereo not drawn) |
| > 50 µM (inactive) | CC1OC2CC(O)C1(O)C1=C2C(=O)c2c(O)c3c(c(O)c2C1=O)[C@H](C)O[C@H]1CC(=O)O[C@@H]31 (stereo partly drawn) |
| > 50 µM (inactive) | COc1ccc(-c2nc(C)c(C(=O)NCc3ccc(S(N)(=O)=O)cc3)s2)cc1 |
| > 50 µM (inactive) | Cc1noc(NS(=O)(=O)c2ccc(NC(=O)CSc3ccc4ccccc4c3)cc2)c1C |
| > 50 µM (inactive) | CC1(C(=O)NCc2ccccc2)Cn2c(cc3ccccc32)C(=O)N1Cc1ccccc1 (stereo not drawn) |
| > 50 µM (inactive) | COC(=O)c1ccc(NC(=O)CSc2nnc(-c3ccc(O)cc3)n2Cc2ccco2)cc1 |
| > 50 µM (inactive) | Cc1ccc(CN2CCCn3nc(C(=O)NCc4ccc(F)cc4)cc3C2=O)cc1 |
| 2.67 µM | CCOc1ccc(NC(=O)Cn2c(=O)n(CCCCCC(=O)NCc3ccc(F)cc3)c(=O)c3sccc32)cc1 |
| 15.8 µM | COc1ccc(-c2cc3nc([C@H](C)NC(=O)Cc4cccc(F)c4)nn3cn2)cc1 |
| > 50 µM (inactive) | Cc1ccc2nc(N3CCc4ccccc4C3)c3nncn3c2c1 |
| > 50 µM (inactive) | c1coc(CNc2nc(Nc3cccc4ccccc34)nc3ccccc23)c1 |
| > 50 µM (inactive) | CC(=O)c1cccc(NC(=O)c2ccc3[nH]c4c(c3c2)CC(C)CC4)c1 (stereo not drawn) |
| > 50 µM (inactive) | CCCc1nc2sc3c(NCc4ccco4)ncnc3c2c2c1CCC2 |
